Patent US10709704B2, “Treating neural disease with tyrosine kinase inhibitors” (GEORGETOWN UNIVERSITY, priority 2012, dated 2020)

Assays:
[1] = test system: molecular markers of autophagy; test: Western blot of autophagy markers, A53T mice; format: in vivo, mouse; settings: daily IP Nilotinib 3 weeks
Excerpt: Rabbit polyclonal (1:1000) tubulin (Thermo Scientific) was used.

[2] = test system: parkin and molecular markers of autophagy; test: Parkin and autophagy markers (WB, ELISA), lentiviral Aβ1-42 wild type mice; format: in vivo, mouse
[3] = test system: molecular markers of autophagy; test: Western blot of autophagy markers, lentiviral Aβ1-42 parkin−/− mice; format: in vivo, mouse
Tg-APP mice [4] = test: Morris water maze, Tg-APP mice; format: in vivo, mouse
Protocol: All animals were pre-trained (trials) to swim for 90 seconds in a water maze containing a platform submerged in water (invisible) for 4 consecutive days once a day. The pretraining trials “teach” the swimming animals that to “escape”, they must find the hidden platform, and stay on it. The water maze “test” was performed on day 5, (40), when the platform was removed and mice have to swim and find it, thus assessing acquisition and retention. All parameters, including distance travelled to reach platform, speed to get to the platform, latency or time spent on platform, and platform entry were digitally recorded on a computer and analyzed by a blind investigator.
(§1) These experiments were repeated in 1 year old Tg-APP mice and age-matched control (C57BL/6).

Tg-APP mice [5] = test: Novel object recognition, Tg-APP mice; format: in vivo, mouse; settings: Tg-APP+Nilotinib
Protocol: Mice were placed individually in a 22×32×30 cm testing chamber for a 5 min habituation interval and returned to their home cages. Thirty minutes later mice were placed in the testing chamber for 10 min with two identical objects (acquisition session), then returned to their home cages and […] placed back in the testing chamber in the presence with one of the original objects and one novel object of the same size but of a different color and shape (recognition session). Sessions were video recorded. Time spent exploring the objects were scored by blind observer. The recognition index was calculated as (time exploring one of the objects/time exploring both objects)×100 for acquisition session, and (time exploring new object/time exploring both familiar and novel objects)×100 for the recognition session. Statistical calculations to estimate differences between sessions were performed with a pairwise t-test.
as §1

[6] = test system: human Tau, Aβ1-42, α-synuclein; test: M17 cells transfected with Tau cDNA: Tau, Aβ1-42, α-synuclein; format: cell-based
Protocol: Cell culture experiments are referenced below and explained in Burns et al. (Human Molecular Genetics. 2009) and Rebeck et al. (J. Biol. Chem. 2010, 285:7440-7446). Additional details are provided in the brief description of the figures.
In other experiments, M17 cells transfected with Tau cDNA were treated with Nilobinib and Tubacin (an HDAC6 inhibitor).

[7] = test system: autophagic vacuoles and lysosomes; test: Subcellular fractionation (AV-10, AV-20, lysosome) and ELISA, Tg-APP mice; format: in vivo, mouse
Protocol: Histograms show Aβ1-42 in subcellular fractions, including autophagic vacuole-10 (AV-10; phagophores+autophagosomes), AV-20 (autophagosomes) and lysosomes. […] Brain tissues were fractionated to isolate AVs and human specific ELISA was performed to determine protein contents. N=5 animals per treatment.
(§2) 0.5 g of Frozen human or animal brains were homogenized at low speed (Cole-Palmer homogenizer, LabGen 7, 115 Vac) in 1×STEN buffer and centrifuged at 1,000 g for 10 minutes to isolate the supernatant from the pellet. The pellet was re-suspended in 1×STEN buffer and centrifuged once to increase the recovery of lysosomes. The pooled supernatants were then centrifuged at 100,000 rpm for 1 hour at 4° C. to extract the pellet containing autophagic vacuoles (AVs) and lysosomes. The pellet was then re-suspended in 10 ml (0.33 g/ml) 50% Metrizamide and 10 ml in cellulose nitrate tubes. A discontinuous Metrizamide gradient was constructed in layers from bottom to top as follows: 6 ml of pellet suspension, 10 ml of 26%; 5 ml of 24%; 5 ml of 20%; and 5 ml of 10% Metrizamide (Marzella et al., 1982). After centrifugation at 10,000 rpm for 1 hour at 4° C., the fraction floating on the 10% layer (Lysosome) and the fractions banding at the 24%/20% (AV 20) and the 20%/10% (AV10) Metrizamide inter-phases were collected by a syringe and examined.
as §2, with “Animal” for “0.5 g of Frozen human or animal”, “100.000” for “100,000”, “[…]” for “4°”, “Metrizamide.” for “Metrizamide (Marzella et al., 1982).”, “100,000” for “10,000”, “40 C,” for “4° C.,”

[8] = wild type lentiviral Aβ1-42 mice, Nilotinib vs DMSO
[9] = IP 10 mg/kg Nilotinib or 5 mg/Kg Bosutinib daily 3 weeks

Cc1cn(-c2cc(NC(=O)c3ccc(C)c(Nc4nccc(-c5cccnc5)n4)c3)cc(C(F)(F)F)c2)cn1 [Nilotinib]
LC3-II level [1]: completely disappeared
increase in Atg-5 compared to DMSO [1]: 29%
increase in beclin-1 compared to DMSO [1]: 69%
LC3-II [2, 8]: disappearance
decrease in LC3-B [2, 8]: 38%
parkin level (ELISA) ([2]; wild type mice and lentiviral Aβ1-42 ± Nilotinib): increases parkin level
Atg12 and Atg5 levels (WB) [3]: not changed
LC3-II (WB) [3]: did not clear
time spent in SE (Tg-APP mice [4]; 1 year old Tg-APP mice, 10 mg/kg daily for 3 weeks): reversed time spent in SE back to control level
distance traveled above control levels (Tg-APP mice [4]; Nilotinib treated Tg-APP mice): 30%
entries into SE (platform entry) higher than control (Tg-APP mice [4]; Tg-APP+Nilotinib): 30%
better performance at finding new objects than DMSO mice (Tg-APP mice [5]): 31%
human Aβ1-42 [6]: decrease
human Tau [6]: decrease
α-synuclein [6]: decrease
autophagic clearance of Aβ1-40 (deposition in AV-20 and lysosome) [7, 9]: enhances autophagic clearance
autophagic clearance of Aβ1-42 (deposition in AV-20 and lysosome) [7, 9]: enhances autophagic clearance
autophagic clearance of p-Tau ser 396 (deposition in AV-20 and lysosome) [7, 9]: enhances autophagic clearance
autophagic clearance of parkin (deposition in AV-20 and lysosome) ([7]; IP 10 mg/kg Nilotinib or 5 mg/kg Bosutinib daily 3 weeks): enhances autophagic clearance
